Experimental data taken from publication PMC11760092, “Pretreatment with serine protease inhibitors impairs Leishmania amazonensis survival on macrophages” (Parasites & Vectors, 2025).

Columns and labels:
[1] = test system: peritoneal macrophages from BALB/c mice; test: Cytotoxicity assay (MTT); assay type: cell-based; details: 72 h of incubation; MTT; interval in brackets
Protocol: To determinate the toxicity of the inhibitors on mammalian cells, peritoneal macrophages from BALB/c mice, obtained by peritoneal lavage, in concentration of 2 × 10^6 macrophages/mL, were adhered in 96-well culture plates overnight at 37 °C with 5% CO2. The inhibitors were then added in different concentrations and incubated for 72 h at 37 °C and 5% CO2. Cell viability was also assessed by the MTT method. Cytotoxic concentration of 50% of macrophages (CC50) values were calculated using GraPadPrism 8 software. Three independent experiments in triplicate were performed.

[2] = test system: Leishmania amazonensis-WT promastigotes; test: Antipromastigote assay (MTT); assay type: cell-based; details: for IC50: 72 h of incubation, interval in brackets, read-out: Antileishmanial effect in Leishmania amazonensis IC50 Promastigote
Protocol: Leishmania amazonensis–WT promastigotes, in the logarithmic phase of growth, were transferred to 96-well culture plates (final concentration 2 × 10^6 cells/mL) and exposed to different concentrations of inhbitors during 72 h at 25 °C. The cell viability was evaluated by the 3-(4,5-dimethylthiazol-2-yl)-2,5 diphenyltetrazolium bromide (MTT) method (obtained from Sigma-Aldrich). The inhibitory concentration of 50% of parasite growth (IC50) values were calculated using GraphPad Prism 8 software […]. Three independent experiments in triplicate were performed. Amphotericin B (Cristália, São Paulo, SP, Brazil) was used as a reference drug.

[3] = test system: L. amazonensis (RFP) amastigotes; test: Antiamastigote assay (RFP fluorescence, infected peritoneal macrophages); assay type: cell-based; details: 72 h of incubation; interval in brackets; read-out: Antileishmanial effect in Leishmania amazonensis IC50 Amastigote
Protocol: Peritoneal macrophages from BALB/c mice were obtained by peritoneal lavage and distributed in 24-well plates at 2 × 10^6 cells/mL in RPMI medium (Cultilab) containing 10% FBS and a 0.5% penicillin and streptomycin solution (complete RPMI). The plates were incubated for 1 h at 37 °C and 5% CO2, washed with phosphate-buffered saline (PBS), and then reincubated in complete RPMI medium overnight. The cells were washed again with PBS and infected with stationary growth phase L. amazonensis (RFP) promastigotes at a 10:1 ratio for 4 h at 33 °C. The plates were washed with PBS and the inhibitors were added at different concentrations and incubated for 72 h. After this time, each well was scraped to remove attached cells and the reading was taken with a spectrofluorimeter (FLx800, BioTek Instruments, Winooski, VT, USA) at 530 nm and 590 nm of excitation and emission, respectively. […] All assays were performed in triplicate and repeated three times. Results were calculated as the percentage of amastigote survival compared with the nontreated control group, and IC50 values were determined using GraphPad Prism 8 software.

[4] = test system: Leishmania amazonensis-RFP promastigotes; test: Viability of promastigotes after 1 h of treatment with inhibitors; assay type: cell-based; details: 1 h treatment, washed; 0 h, 24 h, 48 h and 72 h of incubation
Protocol: Leishmania amazonensis-RFP promastigotes were treated with different concentrations of inhibitors during 1 h at 25 °C and were washed with PBS. Then, these cells had their viability determined by fluorescence analysis using a spectrofluorimeter (time = 0 h) and were also reincubated in complete RPMI medium for subsequent analysis of cell viability after 24 h, 48 h, and 72 h (times = 24 h, 48 h, and 72 h) by fluorescence analysis.

[5] = test system: L. amazonensis in peritoneal macrophages; test: Promastigote pretreatment and infection of peritoneal macrophages; assay type: cell-based, Leishmania amazonensis; details: for entry of promastigotes into macrophages: promastigotes pretreated 1 h, 0 h after 4 h interaction
Protocol: Leishmania amazonensis-RFP promastigotes were pretreated with different concentrations of inhbitors during 1 h at 25 °C. The cells were washed with PBS and used to infect peritoneal macrophages from BALB/c mice (10:1 ratio), not pretreated or pretreated with 0.5 ng/mL IFN-γ overnight, in 24-well plates. After 4 h of interaction, the plates were washed with PBS and (1) scraped to remove attached cells and read using a spectrofluorimeter (time = 0 h) or (2) incubated at 33 °C with 5% CO2 for 24 h, 48 h, and 72 h for later scraping and reading (times = 24 h, 48 h, and 72 h). Three experiments were performed, each one with three replicates.
The same experiment was repeated, but using 13 mm glass coverslips in 24-well plates. The fixation with ethanol and staining with Giemsa were performed. Subsequently, the slides were examined in an optical microscope (Olympus BX53, Shinjuku, Tokyo, Japan) and photographed (Olympus DP73, Shinjuku, Tokyo, Japan).

[6] = test system: L. amazonensis promastigotes; set-up: method as in PMID 17726617; details: 100 µM; cited from earlier work
[7] = test system: L. donovani serine proteases; set-up: method as in PMID 26040107; details: concentration not given; cited from earlier work
[8] = test system: L. donovani promastigotes; set-up: method as in PMID 26040107; details: concentration not given; cited from earlier work
[9] = test system: L. amazonensis serine proteases; set-up: method as in PMID 25583728; details: cited from earlier work
[10] = test system: L. amazonensis promastigotes and amastigotes; details: cited from earlier work
[11] = test system: L. amazonensis; details: mice infected with L. amazonensis; cited from earlier work

| Compound | CC50 [1] [µM] | IC50 [2] [µM] | IC50 [3] [µM] | viability of promastigotes after 1 h of treatment, compared with the control [4] | entry of promastigotes into macrophages [5] | permanence and survival of amastigotes within host cells ([5]; promastigotes pretreated 1 h with 200 µM or 6.25 µM, up to 72 h) | inhibition of the parasite's viability ([2]; promastigotes, 6.25 µM) | survival of parasites within macrophages ([5]; promastigotes pretreated 1 h with 100 µM, 48 h and 72 h of infection) | viability of L. amazonensis promastigotes [6] | inhibition of the proteolytic activity [7] [%] | cell viability of L. donovani promastigotes (reduction) [8] | inhibition of L. amazonensis serine proteases [9] | effect on promastigotes and amastigotes of L. amazonensis [10] | lesion size [11] |
| --- | --- | --- | --- | --- | --- | --- | --- | --- | --- | --- | --- | --- | --- | --- |
| O=S(=O)(F)Cc1ccccc1 [PMSF] | 269 | > 200 | > 200 | did not change the viability | did not change the entry | did not alter the permanence and survival | – | – | – | – | – | – | – | – |
| Cc1ccc(S(=O)(=O)N[C@@H](CCCCN)C(=O)CCl)cc1 [TLCK] | 104 | 52.5 | 140 | did not change the viability | occurred similarly to the control | – | around 10% | slightly reduced | did not reduce promastigote viability | 18 | only did so after 15 h and 20 h | – | – | – |
| epoxy-α-lapachone | – | – | – | – | – | – | – | – | – | – | – | inhibited L. amazonensis serine proteases | effective against promastigotes and amastigotes | reduction of the lesion size |
